“Also recorded” adds a separate entry of the source.
Legend:
[1] = ADME screening: LogD; conditions: for logD: pH 7.4
[2] = target: DNA; assay: Binding constant to DNA; conditions: Table 7
[3] = Microsomal stability in vitro (human liver microsomes); conditions: for Microsomal stability in vitro CLint (in words): Table 8
[4] = target: T1, ERCC1-XPF complex (Homo sapiens, UniProt Q92889); assay: Steady-state intrinsic tryptophan fluorescence quenching binding assay; conditions: Table 7; read-out: Kd protein
T1 construct: His6; made in house; host or cells: E. coli BL21 (DE3)
T1 sequence (Q92889 1-916): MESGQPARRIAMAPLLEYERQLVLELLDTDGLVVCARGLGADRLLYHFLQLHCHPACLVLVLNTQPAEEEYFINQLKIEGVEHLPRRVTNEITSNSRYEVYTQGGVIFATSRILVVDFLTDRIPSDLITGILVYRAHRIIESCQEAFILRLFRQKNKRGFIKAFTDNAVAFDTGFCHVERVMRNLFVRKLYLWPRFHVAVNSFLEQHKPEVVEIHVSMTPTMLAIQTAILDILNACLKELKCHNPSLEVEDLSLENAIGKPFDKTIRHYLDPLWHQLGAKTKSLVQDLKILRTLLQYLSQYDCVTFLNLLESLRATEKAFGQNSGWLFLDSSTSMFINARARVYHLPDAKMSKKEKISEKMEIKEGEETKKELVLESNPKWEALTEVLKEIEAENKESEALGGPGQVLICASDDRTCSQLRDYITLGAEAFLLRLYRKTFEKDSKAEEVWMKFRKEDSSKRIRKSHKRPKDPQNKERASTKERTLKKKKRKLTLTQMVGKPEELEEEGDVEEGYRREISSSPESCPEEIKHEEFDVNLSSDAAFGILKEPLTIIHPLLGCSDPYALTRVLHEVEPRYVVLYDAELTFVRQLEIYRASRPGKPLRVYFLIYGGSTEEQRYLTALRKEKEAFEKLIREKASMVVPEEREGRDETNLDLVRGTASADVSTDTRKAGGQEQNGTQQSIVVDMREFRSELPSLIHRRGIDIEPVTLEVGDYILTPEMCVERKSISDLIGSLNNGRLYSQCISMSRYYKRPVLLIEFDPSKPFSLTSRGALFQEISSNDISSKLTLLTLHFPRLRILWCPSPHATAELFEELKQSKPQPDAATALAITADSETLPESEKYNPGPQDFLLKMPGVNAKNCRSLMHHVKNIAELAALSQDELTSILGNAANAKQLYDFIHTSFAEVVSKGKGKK
Experimental: Steady-state fluorescence spectra were measured at room temperature on a Perkin-Elmer LS-55 spectrofluorometer (Freemont, Calif.) with 5 nm spectral resolution for excitation and emission using 30-80 nM solution of purified recombinant ERCC1-XPF protein complex. […] In studying the effects of inhibitors on protein fluorescence intensities, additions to protein samples were made from inhibitors stock solutions, keeping the protein dilution below 3%.

[5] = ADME screening: cell permeability and efflux ratio; conditions: for Cell permeability (Mean recovery %) (in words): Table 8
[6] = target: T2, ERCC1-XPF (Homo sapiens, UniProt Q92889); assay: Microplate fluorescence incision assay of ERCC1-XPF endonuclease activity; format: biochemical; conditions: for inhibition of ERCC1-XPF endonuclease activity (in words): compounds 10 μM each; for IC50: full-length ERCC1-XPF, 30 minutes incubation, 5% DMSO, read-out: IC50 of ERCC1-XPF endonuclease activity
T2 construct: His6; made in house; host or cells: E. coli BL21 (DE3)
T2 sequence (Q92889 1-916): T1 sequence (Q92889 1-916)
Description: This assay has been previously described (29), and utilizes a stem-loop substrate (composed of a 10mer-duplex stem and a 20mer-oligodT single-strand loop), labelled on the 5′-terminus with 6-FAM and 3′ with the quencher dabcyl.
Human ERCC1-XPF wild-type protein was obtained as previously described (29). Basically, the recombinant protein was expressed from a bicistronic plasmid (provided by Dr. Richard Wood, University of Texas MD Anderson Cancer Center, Smithville, Tex.) in the E. coli BL21 (DE3) strain. Since both XPF and ERCC1 contained a polyhistidine (His-6) tag, the proteins extracted from E. coli were incubated with a ProBond Nickel-Chelating Resin (Thermo Fisher Scientific). Protein eluted from the Ni affinity column was subsequently loaded into a Hi-trap heparin column (GE Healthcare). Fractions recovered from the heparin column that contained ERCC1-XPF were dialyzed, concentrated and stored at −80° C. in 10 mM HEPES pH 7.4, 2.5 mM p-mercaptoethanol, 0.01% CHAPS, 0.25 mM EDTA, 50% glycerol and 25 mM NaCl.
A previously described protocol (2,29) was followed.

[7] = system: HCT116 cells; assay: Cellular repair of UV-induced cyclobutane pyrimidine dimers (immunofluorescence); format: cell-based, human; conditions: 8 J/m^2 UV-C, up to 24 h post-irradiation
Experimental: Protocol of Mirzayans et al. was followed with minor modifications (30). Approximately 1×10^5 HCT116 cells were seeded on each coverslip and allowed to attach overnight. Medium was then removed and cells were treated for one hour with the desired compound. The medium was removed, and cells were exposed to 8 J/m^2 UV-C radiation (G15T8 254 nm lamp, Ushio America Inc, Cypress, Calif.) followed by adding fresh medium containing the compound. Plates were incubated at 37° C. for different periods of time up to 24 hours and fixed in 50:50 methanol/1× phosphate-buffered saline (PBS) solution, followed by replacing the methanol/PBS solution with 100% methanol and incubation in −20° C. After 20 minutes, methanol was removed, and cells were treated with PBS for 5 minutes in room temperature. After fixing, cells were permeabilized in 0.5% Triton/PBS and washed with PBS, denatured in 2 N HCl, and neutralized by twice washing with 0.1 M borate buffer pH 8.5. Cells on cover slips were washed once with PBS followed by blocking with 5% non-fat dry milk/PBS for 30 minutes. Mouse anti-thymine dimer monoclonal antibody (Cat. No. MC-062, Kamiya Biomedical Company, Seattle, Wash.) was applied to the cover slips for one hour in the dark and at room temperature. Cells were then washed with PBS containing 0.1% Tween-20 and incubated with rabbit anti-mouse IgG-Alexafluor antibody (Invitrogen, Carlsbad, Calif.) followed by two washes with PBS/(0.1%)Tween-20. Cells on coverslips were then washed with PBS, rinsed with water, and mounted on slides using DAPI glycerol mounting solution. Slides were kept at 4° C. before fluorescent microscopic evaluation and measurement of fluorescence intensity with MetaXpress Version: 6.2.1.704 software (Molecular Devices, Sunnyvale, Calif.).
To test for inhibition of nucleotide excision repair, we monitored the cellular removal of UVC-induced cyclobutane pyrimidine dimers (CPDs) in HCT116 cells over a 24-hour period using an immunochemical assay.

[8] = ADME screening: solubility; format: physicochemical; conditions: Table 8
[9] = system: HCT116 cells; assay: Clonogenic survival assay, cyclophosphamide treatment; format: cell-based, human; conditions: cyclophosphamide 0-300 μM; compound 1-4 μM
Experimental: Plates were incubated for another 8 days at 37° C. in a 5% CO2 atmosphere for colony formation. After this period plates were stained with crystal violet, colonies were counted, and plating efficiency and surviving fraction were calculated.

[10] = system: HCT116 cells; assay: Clonogenic survival assay, UV treatment; format: cell-based, human; conditions: 254 nm UV 0-10 J/m^2; compound 0.5-4 μM
Experimental: UV treatment: HCT116 cells (100-800 cells depending on the UV dose) were plated in triplicate in 60-mm petri dishes. The cells were incubated overnight at 37° C. in a humidified atmosphere containing 5% CO2 to allow for cell attachment. […] Medium was removed again, and cells were exposed to increasing doses (0-10 J/m^2) of UV-C radiation and then incubated for a further 10 days in the presence of inhibitor at 37° C. in a 5% CO2 atmosphere to allow for colony formation. After this period plates were stained with crystal violet and colonies were counted using a Colcount instrument (Oxford Optronix, Abingdon UK). Finally, plating efficiency and surviving fraction were calculated.

[11] = system: HCT116 cells; assay: Cytotoxicity profile: crystal violet viability assay (and colony forming assay); format: cell-based, human
Experimental: Crystal violet viability assays were carried out to assess the cellular toxicity of these compounds to HCT116 cells and to choose relatively non-cytotoxic concentrations to be further utilised in sensitizing cells to UV radiation or cyclophosphamide.
The beneficial effect is especially visible at a concentration of 5.0 μM. At higher concentrations, both compounds show an equal cytotoxic effect (FIG. 15).

[12] = Hepatocyte stability in vitro; format: in vitro ADME; conditions: Table 8
[13] = system: serum proteins; assay: ADME screening: serum protein binding; format: in vitro ADME; conditions: Table 8
[14] = system: five CYP450 tested enzymes

LogD (rating) ([1]; Table 8) | logD [1] | Microsomal stability in vitro CLint (in words) [3] | Cell permeability (Mean recovery %) (in words) [5] | inhibition of ERCC1-XPF endonuclease activity (in words) [6] | IC50 [6] | Solubility (in words) [8] | SMILES | inhibition of cellular removal of CPDs / thymidine dimers (in words) [7] | sensitisation to cyclophosphamide, clonogenic survival (in words) [9] | sensitisation to UV radiation, clonogenic survival (in words) [10] | also measured
Good | 2.01 | Moderate | Low | marked capacity to inhibit | 490 nM | Unstable | CN(C)CCN1CCN(Cc2cc(Nc3c4ccc(Cl)cc4nc4ccc(O)cc34)ccc2O)CC1 [Gen B9] | significantly inhibited the removal of CPDs | significantly sensitised the HCT116 cells to cyclophosphamide | significantly reduced the survival | Kd [2]: 1050 ± 50 nM; metabolism on exposure to human liver microsomes (in words) [3]: moderate metabolism; Kd [4]: 85 ± 5 nM; efflux ratio ([5]; not told): > 2; inhibition of cellular removal of CPDs / thymidine dimers (in words) ([7]; listed as B9): significantly different; cells survived ([11]; 5 μM, 3 days exposure, crystal violet): approximately 95%
Good | 3.95 | Low clearance | Low | higher inhibitory effect | 167 nM | Good | COc1ccc2nc3cc(Cl)ccc3c(Nc3ccc(O)c(CN4CCN(CCN(C(C)C)C(C)C)CC4)c3)c2c1 [Gen C-1, 4-((6-Chloro-2-methoxyacridin-9-yl)amino)-2-((4-(2-(diisopropylamino)ethyl)piperazin-1-yl)methyl)-phenol] | significant inhibition of removal of CPDs | significantly sensitised the HCT116 cells to cyclophosphamide; also recorded: significantly sensitized the cells to cyclophosphamide | significant sensitisation effect | Hepatocyte stability in vitro CLint (in words) [12]: (medium clearance); LogD (remark in the LogD row) ([1]; Table 8): (partially soluble); Serum protein binding (% bound) [13]: (99.5) % bound; Serum protein binding (in words) [13]: Strong binding; CVP inhibition (5 enzyme) (rating) [14]: Good; cytotoxicity (in words) ([11]; crystal violet staining, for Gen C1 also colony forming assay): lower cytotoxicity

Reference: US20220306603A1, “TARGETING DNA REPAIR IN TUMOR CELLS VIA INHIBITION OF ERCC1-XPF” (The Governors of the University of Alberta, priority 2019, published 2022)
